Test results reported in US20230235374A1, “High Throughput Assays for Detecting Translation Readthrough Inducers” (The Trustees of the University of Pennsylvania, priority 2021, published 2023).
Read-outs that look alike come from different tables or passages of the source.

What was measured:
[1] = system: Stop-POST5 complex (RFC-dependent termination); assay: smTIRF assay of RFC-dependent peptide and tRNA release; format: biochemical, shrimp (Artemia salina)
Experimental: Immobilization of ribosome Stop-POST 5 complexes. PEGylated flow chambers were incubated in 0.5 mg/ml streptavidin for 5 mins and washed with Buffer 4. Biotinylated Stop-POST5 containing FK(atto647)VRQ-tRNA^Gln (Cy3) in the P-site, was formed at room temperature by incubating Stop-POST4, eEF1A, GTP, and Gln-(Cy3)tRNA^Gln for 5 mins and then injected into the streptavidin-coated slide chamber. After a 5 min incubation, excess unbound ribosome was flowed out. Then eRF1/eRF3±TRIDs was injected dynamically at 3 sec while recording. The injection dead time was subtracted for each particle.
Single-molecule fluorescence imaging. All sm-TIRF studies were carried out at 24° C. All dilutions, complex formation, and single-molecule imaging were carried out in Buffer 4 with an added enzymatic oxygen scavenging system of 2 mM protocatechuic acid (PCA), 50 nM protocatechunate 3,4 dioxygenase (PCD, Sigma Aldrich), 1 mM cyclooctatetraene (COT, Sigma Aldrich), 1 mM 4-nitrobenzyl alcohol (NBA, Sigma Aldrich), and 1.5 mM 6-hydroxy-2,5,7,8-tetramethyl-chromane-2-carboxylic acid (Trolox, Sigma-Aldrich) (Flis et al., Cell reports, 25(10), 2676-2688 (2018).
Image stacks were recorded at 100 ms frame rate on a custom-built objective-type total internal reflection fluorescence (TIRF) microscope based on a commercial inverted microscope (Eclipse Ti-E, Nikon) and capable of performing alternating-laser excitation (ALEX) between 532 nm and 640 nm laser beams using an acousto-optic tunable filter (AOTF, Chen et al., 2011). For the time-lapse experiment, timing of the movies, programmed into NIS-Elements (Nikon) microscope software, were recorded by illuminating the sample for 50-20 frames at 10 frames per s with 15 s or […] intervening dark intervals. Video recording was started and then eRF1/eRF3±TRIDs was injected from a triggered syringe pump at 3 sec while recording. The injection dead time was subtracted for each particle. Triggering of the shutters, AOTF, and pump was synchronized using LabView scripts driven from the camera exposure signal.
Data analysis. Collected movies were analyzed by a custom-made software program developed as an ImageJ plugin (Chen et al., Mol. Cell, 42, 367-377 (2011)), and further analyzed using Python. Distributions of peptide and tRNA dissociation times were fit to eq (5), using maximum likelihood estimation (Bevington and Robinson. Data Reduction and Error Analysis for the Physical Sciences. New York: McGraw-Hill, (2002); Woody et al., Biophys. J. 111, 273-282 (2016)), where P is the probability density.
smTIRF results using Atto(pep)-Cy-Stop-POST5 attached to surface-immobilized ribosomes. Although the distance between the two fluorophores is not close enough to produce FRET, fluorescent pairs could be identified by co-localization on the slide under alternating 532 nm and 640 nm total internal reflection fluorescence (TIRF) illumination. This permits near-simultaneous monitoring of the dynamics of peptide and P-site tRNA release from the Stop-POST5 complex following RFC binding.
To reduce photobleaching of each fluorophore, time-lapse movies were recorded with bursts of 20 or 50 frames at 100 ms frame intervals interleaved by 20 s intervals with the lasers shuttered. Total recording time for each trial was 20 min.
FIG. 8A and FIG. 8C show typical frame by frame recordings indicating a loss of signal for both labeled peptide and labeled tRNA after the addition of the RFC to Atto(pep)-Cy(tRNA)-Stop-POST5. Either peptide (a) or tRNA (b) can dissociate first, in approximately equal proportions. Photobleaching of Cy3-labeled tRNA and Atto647-labeled peptide in the absence of eRF1/eRF3 was much slower (FIG. 8E and FIG. 8F). Under the time lapse illumination employed, mean lifetimes for Atto647-peptide and Cy3-tRNA at 0.32 μM eRF1 and 2 μM eRF3 were each 2.45 min. […]

[2] = system: Atto(pep)-Stop-POST5 (RFC-dependent termination); assay: Plate reader fluorescence anisotropy assay of pentapeptide release; format: biochemical, shrimp (Artemia salina); details: absence of ataluren
Experimental: Plate reader assays were run in a Tecan F200® 96-well plate reader (Greiner® black, non-binding, chimney flat) equipped with 640 nm excitation and 700 nm polarization filters using 96-well plates. Atto(pep)-Stop-POST5 in Buffer 4 (0.1 μM, 80 μl) containing GTP (1 mM) was added to plate wells±ataluren at 25° C. eRF1 and eRF3 aliquots stored at −80° C. were thawed for 15 s at 37° C. and added directly to a premade ice-cold GTP (1 mM)±ataluren solution in Buffer 4. The resulting release factor solution was incubated at 25° C. for 1 min, and then added quickly in 80 μL portions to the Atto(pep)-Stop-POST5 containing wells with a multichannel pipette to the Atto(pep)-Stop-Posts wells. The final concentrations were: eRF1, 0.025-0.4 μM; eRF3, 0.8 μM; Atto(pep)-Stop-Posts, 0.05 μM. Fluorescence anisotropy decay graphs were fit with GraphPad Prism, using the one phase decay model to obtain peptide dissociation rates.
Ensemble fluorescence anisotropy results using Atto(pep)-Stop-POST5. The fluorescence anisotropy of the pentapeptidyl moiety of Atto(pep)-Stop-POST5 was quite high (0.22), and decreased following addition of RFC, providing a convenient measure of the rate of pentapeptide release from the ribosome. […] Each such time dependency could be fit to a single exponential, giving the collected rate constants presented in FIG. 9G, in which the rate dependence as a function of RFC concentration was measured at 0, 200, 500, and 1,000 μM ataluren. In the absence of ataluren, EC50 (0.029±0.002 μM) and Vmax (0.31±0.02) values were obtained for pentapeptide release similar to those measured by smTIRF. In addition, as with the smTIRF results, Vmax values were unaffected by added ataluren but EC50 values increased, reaching ˜0.06 μM at 1000 μM.

[3] = system: Stop-POST5 complex (RFC-dependent termination); assay: smTIRF assay of RFC-dependent peptide and tRNA release; format: biochemical, shrimp (Artemia salina); details: saturating RFC (0.65 μM eRF1, 1.3 μM eRF3)
[4] = system: Trp-PRE6 complex; assay: smFRET translocation of Trp-PRE6 to Trp-POST6; format: biochemical; details: 23° C.
Excerpt: Changes in FRET (FIGS. 16E-16G) were used to determine the rate of translocation (FIG. 16H) and the residence time of deacylated tRNA dissociation from the E-site (FIG. 16I) as functions of [eEF2.GTP].

[5] = 0.32 μM eRF1 and 2 μM eRF3, time lapse illumination
[6] = absence of ataluren, Michaelis-Menten fit

## RFC: release factor complex of eRF1 and eRF3 with GTP catalysing termination
[1]; [5]
  mean lifetime, Atto647-peptide: 2.45 min
  mean lifetime, Cy3-tRNA: 2.45 min
[1]; [RFC] 0.016 μM
  peptide release rate constants, As 2nd product: 0.12 ± 0.03 min⁻¹
  peptide release rate constants, Overall: 0.13 ± 0.02 min⁻¹
  tRNA release rate constants, As 2nd product: 0.086 ± 0.023 min⁻¹
  tRNA release rate constants, Overall: 0.10 ± 0.02 min⁻¹
[1]; [RFC] 0.032 μM
  peptide release rate constants, As 2nd product: 0.15 ± 0.02 min⁻¹
  peptide release rate constants, Overall: 0.16 ± 0.02 min⁻¹
  tRNA release rate constants, As 2nd product: 0.063 ± 0.021 min⁻¹
  tRNA release rate constants, Overall: 0.12 ± 0.02 min⁻¹
[1]; [RFC] 0.080 μM
  peptide release rate constants, As 2nd product: 0.15 ± 0.02 min⁻¹
  peptide release rate constants, Overall: 0.21 ± 0.02 min⁻¹
  tRNA release rate constants, As 2nd product: 0.12 ± 0.02 min⁻¹
  tRNA release rate constants, Overall: 0.17 ± 0.03 min⁻¹
[1]; [RFC] 0.166 μM
  peptide release rate constants, As 2nd product: 0.19 ± 0.02 min⁻¹
  peptide release rate constants, Overall: 0.24 ± 0.01 min⁻¹
  tRNA release rate constants, As 2nd product: 0.14 ± 0.03 min⁻¹
  tRNA release rate constants, Overall: 0.18 ± 0.02 min⁻¹
[1]; [RFC] 0.32 μM
  peptide release rate constants, As 2nd product: 0.24 ± 0.03 min⁻¹
  peptide release rate constants, Overall: 0.26 ± 0.02 min⁻¹
  tRNA release rate constants, As 2nd product: 0.17 ± 0.03 min⁻¹
  tRNA release rate constants, Overall: 0.20 ± 0.02 min⁻¹
[1]; [RFC] 0.65 μM
  peptide release rate constants, As 2nd product: 0.23 ± 0.04 min⁻¹
  peptide release rate constants, Overall: 0.27 ± 0.03 min⁻¹
  tRNA release rate constants, As 2nd product: 0.23 ± 0.04 min⁻¹
  tRNA release rate constants, Overall: 0.21 ± 0.03 min⁻¹
[1]; [RFC] 1.61 μM
  peptide release rate constants, As 2nd product: 0.25 ± 0.03 min⁻¹
  peptide release rate constants, Overall: 0.26 ± 0.02 min⁻¹
  tRNA release rate constants, As 2nd product: 0.15 ± 0.02 min⁻¹
  tRNA release rate constants, Overall: 0.20 ± 0.02 min⁻¹
[1]; [6]
  Vmax, peptide dissociation: ~0.27 ± 0.02 min⁻¹
  Vmax, tRNA dissociation: 0.20 ± 0.02 min⁻¹
[1]; absence of ataluren, read-out: EC50, peptide dissociation
  EC50: ~20 nM
[1]; absence of ataluren, read-out: EC50, tRNA dissociation
  EC50: ~20 nM
[2]
  EC50: 29 ± 2 nM
  Vmax, pentapeptide release: 0.31±0.02
[3]
  rate constant, Atto(pep)-Cy(rbsm)-Stop-POST5: 0.26 ± 0.03 min⁻¹
  rate constant, Atto(rbsm)-Cy(tRNA)-Stop-POST5: 0.20 ± 0.03 min⁻¹

B1: eEF2: yeast eukaryotic elongation factor 2 (protein, UniProt P32324 1-842, looked up)
Elongation factor 2: MVAFTVDQMRSLMDKVTNVRNMSVIAHVDHGKSTLTDSLVQRAGIISAAKAGEARFTDTRKDEQERGITIKSTAISLYSEMSDEDVKEIKQKTDGNSFLINLIDSPGHVDFSSEVTAALRVTDGALVVVDTIEGVCVQTETVLRQALGERIKPVVVINKVDRALLELQVSKEDLYQTFARTVESVNVIVSTYADEVLGDVQVYPARGTVAFGSGLHGWAFTIRQFATRYAKKFGVDKAKMMDRLWGDSFFNPKTKKWTNKDTDAEGKPLERAFNMFILDPIFRLFTAIMNFKKDEIPVLLEKLEIVLKGDEKDLEGKALLKVVMRKFLPAADALLEMIVLHLPSPVTAQAYRAEQLYEGPADDANCIAIKNCDPKADLMLYVSKMVPTSDKGRFYAFGRVFAGTVKSGQKVRIQGPNYVPGKKDDLFIKAIQRVVLMMGRFVEPIDDCPAGNIIGLVGIDQFLLKTGTLTTSETAHNMKVMKFSVSPVVQVAVEVKNANDLPKLVEGLKRLSKSDPCVLTYMSESGEHIVAGTGELHLEICLQDLEHDHAGVPLKISPPVVAYRETVESESSQTALSKSPNKHNRIYLKAEPIDEEVSLAIENGIINPRDDFKARARIMADDYGWDVTDARKIWCFGPDGNGPNLVIDQTKAVQYLHEIKDSVVAAFQWATKEGPIFGEEMRSVRVNILDVTLHADAIHRGGGQIIPTMRRATYAGFLLADPKIQEPVFLVEIQCPEQAVGGIYSVLNKKRGQVVSEEQRPGTPLFTVKAYLPVNESFGFTGELRQATGGQAFPQMVFDHWSTLGSDPLDPTSKAGEIVLAARKRHGMKEEVPGWQEYYDKL
[4]
  kcat, translocation: 1.0 s⁻¹
[4]; read-out: Km^eEF2, translocation
  Km: 0.28 µM
